Test results: the NIST ThermoML archive (doi:10.1021/je0342421)
Numbers after ± are expanded uncertainties.

Settings: Liquid

CCOC(C)(C)C [2-ethoxy-2-methylpropane]
Settings | vapor or sublimation pressure [kPa]
312.49 K | 31.7 ± 0.7
318.55 K | 40.2 ± 0.7
323.25 K | 47.2 ± 0.8
325.18 K | 51.4 ± 0.8
326.6 K | 54.1 ± 0.8
329.02 K | 59 ± 0.8
331.96 K | 65.3 ± 0.9
333.28 K | 67.4 ± 0.9
335.92 K | 74.8 ± 0.9
338.08 K | 80.5 ± 0.9
340.01 K | 85.8 ± 1
341.49 K | 90.1 ± 1
342.88 K | 94.3 ± 1
343.86 K | 97 ± 1
345.77 K | 102.8 ± 1.1
